Read-outs that look alike come from different tables or passages of the source. Marks after values point to notes of the source that are not given here.
How the values were obtained:
[1] = test system: pentobarbital-anesthetized normotensive rats; conditions: mean ± S.E. (n=6)
Procedure: A male Wistar Strain, weighing 300˜450 grams, is administered with 40 mg/kg of pentobarbital sodium via hypodermic syringe for anesthesia before implementing trachea dissection and inserting respiratory tube to ensure the animal maintains smooth breath during operation, while also facilitating emergency rescue. The tube insertion is done with a polyethylene tube (PE50), with inner diameter of […] and outer diameter of 0.97 mm, on the femoral vein to facilitate administering medication during the experiment; a 3-way stopcock is used by connecting one end to the medicated bottle, while the other end is connected to the saline solution bottle, thus some saline solution can be injected right after administering the medication to prevent the medication from lingering in the polyethylene tube (PE50) that may affect the accuracy of the experiment. The left artery is also inserted with the polyethylene tube(PE50) by using the same 3-way stopcock with one end connected to heparin solution as the polyethylene tube (PE50) is equipped with a valve to clear any blockage in the path; the other end is connected to disposable diaphgram dome (TA1019), which is then connected to the data converter, and through an amplifier, and then finally through the recorder to record the medication's impact on the male Wistar Strain's blood pressure and heartbeat. The Wistar Strain is given different dosages of test medication in 1.0, 1.5, 3.0 mg/kg respectively through intravenous injection to examine the medication's effects on heartbeat and blood pressure.

α-adrenoceptor = conditions: versus L-phenylephrine contraction of detached chest artery; Schild plot regression
Procedure: Same as the blood vein relaxation experiment, detached primary artery taken from the guinea pig is given 1 gram of tension, and upon balancing for 60 minutes, L-phenylephrine is administered directly from low concentration to high using 0.5 log unit to gradually increase until the maximum reaction is reached, and this act as the control unit. Then different concentrations of the synthetic testing compound, 10^−7 M, 10^−6 M, or 10^−5 M, are used, and upon 30 minutes of reaction, L-phenylephrine is used again to complete the cumulative dose. The EC50 value may be obtained from observation of the suppressing effects caused by different concentrations of the synthetic testing compound.
It is same as the calculation method used in the experiment of the detached right auricle.

β1-adrenoceptor [2] = conditions: versus isoproterenol, contraction of left atrium; Schild plot regression; six to eight experiments
Procedure: The stimulating frequency is 0.5 Hz, resting tension is 0.5 grams. Upon balancing(approximately 50 minutes) the following experiment is conducted;
(a) Completion of the cumulative concentration-response curves, which is similar to the experimenting methods use on the same detached right auricle.
(b) The calculation of pA2 value is same as the calculation method used in the experiment of the detached right auricle.

[3] = test system: isolated guinea pig thoracic aorta; conditions: 10 μM L-phenylephrine contraction, mean ± S.E. (n=6)
Source text: A 300-450 gram guinea pig is obtained, and forcefully hit at the head, and blood drained from the artery at the neck to quickly retrieve the main chest artery, which is placed in chilled Kreb solution and the fatty tissue clung to the vicinity of the blood vein is carefully removed, and then the main chest artery is trimmed to a circular shape of approximately 5 mm. Two S-shaped platinum threads are used to stabilize the top and bottom of the main artery before placing it in a 10-milliliter organ tank with 95% oxygen and 5% carbon dioxide mixed gas. One end is connected to the bottom of the organ tank, and the other end connected to the force transducer, and a recorder is used to record the isometric contraction. The specimen is given one gram of tension, and after balancing for 60 minutes, 10 μM of phenylephrine is prescribed to test the vivacity of the main chest artery. Upon balancing and the phenylephrine rinsed off, 10 μM of phenylephrine is used again to achieve the maximum contraction. And upon balancing, different concentration of synthetic testing compounds are used, 10^−5 M, 10^−6 M, or 10^−7 M, to observe the suppressing effects resulted from different concentrations of synthetic testing compounds.

β1-adrenoceptor [4] = conditions: versus isoproterenol, pulsating rate of right atrium; Schild plot regression; six to eight experiments
Source text: A 300˜450 gram guinea pig is obtained and hit forcefully at the head to put it into comatose, the artery at the neck is cut to release the blood, then the chest is immediately cut open, and the heart quickly retrieved and placed in Krebs solution that is connected to mixed gas(95% oxygen, 5% carbon dioxide), and the left, right auricles separated. The right auricle, which is pulsating in reflex action, is pinned down on both ends by a frog-heart tweezer, and one end stabilized at the bottom and placed in an organ rinser filled with 10 milliliter of Krebs solution with the mixed gas, and the temperature maintained at 32.5[…]; the other end is connected to the force transducer, and the isometric contractions and pulsating frequency are recorded through the Coulbourn At-High-Speed Videograph. The specimen is given tension between 100-150 milligrams, and upon balancing, the following experiment is conducted:
In order to evaluate the degree of vivacity of the β-blockade on the synthetic compounds, for each detached auricle in reflex pulsation, upon balancing(approximately 60 minutes), the cumulative-concentration curve of the β-agonist isoproterenol is completed twice separately. The experiment is designed as follows: <1>The first curve indicates direct application of isoproterenol from low concentration to high using 0.5 log unit to gradually increase until it reaches the maximum reaction; this is the control unit. <2>the second curve is the experimental unit. Different concentrations of synthetic testing compounds(10^−7 M, 10^−6 M, or 10^−5 M), from low concentration to high, are given 30 minutes to react before isoproterenol is used to complete the cumulative prescription. The EC50 value is obtained from observation of the suppressing effects generated from different concentrations of synthetic testing compounds.
According to the method used by Arunlakshana and Schild in 1959, the corresponding values of the synthetic testing compounds are used as the horizontal coordinate, and the corresponding values on the first derivative of the dose ratio are used as the vertical coordination, the values obtains are graphed and linear regression is implemented to obtain a regressed straight-line horizontal coordinate's extracted distance value, which is the pA2 value for this particular synthetic testing compound.

β2-adrenoceptor = molecular target: T1, β2-adrenoceptor (Cavia porcellus, UniProt Q8K4Z4); assay: β2 adrenergic blockade against isoproterenol, isolated guinea pig respiratory tract (Schild plot); conditions: versus isoproterenol relaxation of detached respiratory tract; Schild plot regression
T1 construct: from tissue; host or cells: isolated guinea pig trachea (spiral strips, reserpine-pretreated animal)
T1 sequence (Q8K4Z4 whole entry): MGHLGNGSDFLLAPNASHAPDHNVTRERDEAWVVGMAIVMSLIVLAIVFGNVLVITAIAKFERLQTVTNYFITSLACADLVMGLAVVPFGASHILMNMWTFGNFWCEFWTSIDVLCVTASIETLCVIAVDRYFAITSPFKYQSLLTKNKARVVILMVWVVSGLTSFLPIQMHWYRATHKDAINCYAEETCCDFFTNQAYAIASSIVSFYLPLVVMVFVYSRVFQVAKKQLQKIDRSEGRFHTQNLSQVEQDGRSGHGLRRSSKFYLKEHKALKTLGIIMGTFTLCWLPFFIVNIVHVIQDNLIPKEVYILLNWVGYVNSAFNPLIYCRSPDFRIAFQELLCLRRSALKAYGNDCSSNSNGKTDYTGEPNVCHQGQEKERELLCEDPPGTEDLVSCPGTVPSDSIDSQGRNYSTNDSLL
Procedure: 300-450 gram guinea pig is obtained, and 5 mg/kg reserpine is injected on the belly 18˜24 hours prior to the experiment. Upon hitting the guinea pig into comatose, the artery at the neck is cut and the blood released, and the chest is immediately cut open and the respiratory tract (approximately 4 centimeters long) is taken along the neck and placed in a cultivation dish containing Krems solution at room temperature and connected to mixed gas of 95% oxygen and 5% carbon dioxide. The surrounding tissues are carefully removed, then the respiratory tract is cut to spiral shape that contains 3 to 4 bone coils at each turn, and then cut in two halves, with the two sides clamped by the frog-heart tweezer; one end is stabilized at the bottom and placed in the organ rinser filled with 20 ml of Krebs solution with mixed gas and the temperature maintained at 32° C.; the other side is connected to the force transducer, and even-length isometric contraction is recorded through the Coulbourn At-High-Speed Videograph. The sample is given 2 grams of tension, and upon balancing, the following experiment is conducted.
The respiratory tract used in the experiment is first balanced (approximately one hour) to derive a reflex tension, and then for each half of the respiratory tract, cumulative concentration-response curve for the isoproterenol is completed twice. In the first curve, no synthetic testing compound is added, and is used as the control unit; in the second curve, the synthetic compound first added for an hour before implementing the cumulative concentration-response curve, which is the experimental unit.

`C=CCc1ccc(OCC(O)CNCCOc2ccccc2OC)c(OC)c1` (stereo not shown) [Compound 1, 1-[(4-allyl-2-methoxy)phenoxy}-3-[(2-methoxyphenoxyethyl)amino}-propanol] was tested, and the Blood pressure change ([1]; 1 mg/kg intravenous) was −23.1 ± 4.5 mmHg, the Blood pressure change ([1]; 1.5 mg/kg intravenous) was −30.1 ± 3.6 mmHg and the Blood pressure change ([1]; 3 mg/kg intravenous) was −38.1 ± 5.1 mmHg. For the same molecule, the “PA2 value α” value (α-adrenoceptor) was 8.12, the “PA2 value β1 left atrium” value (β1-adrenoceptor [2]) was 7.95 and the “percentage of relaxation in comparison with the basal value” (shortened to “percentage of relaxation in comparison”) ([3]; 10^−4 M) was −62.8 ± 8.7^a %. The “percentage of relaxation in comparison” value ([3]; 10^−5 M) was −51.7 ± 6.8%, the “percentage of relaxation in comparison” value ([3]; 10^−6 M) was −39.7 ± 9.1% and the “PA2 value β1 right atrium” value (β1-adrenoceptor [4]) was 7.83. For the same molecule, the “PA2 value β2” value (β2-adrenoceptor) was 6.59.

With `CCOC(=O)C=Cc1ccc(OCC(O)CNCCOc2ccccc2OC)c(OC)c1` (stereo not shown) [Compound 2, 1-[(4-propenoic acid ethyl ester-2-methoxy)phenoxy]-3-[(2-methoxyphenoxyethyl)amino]-propanol] the Blood pressure change ([1]; 1 mg/kg intravenous) was −37.5 ± 5.2 mmHg, the Blood pressure change ([1]; 1.5 mg/kg intravenous) was −44.2 ± 8.0 mmHg and the Blood pressure change ([1]; 3 mg/kg intravenous) was −52.4 ± 4.5 mmHg. The “PA2 value α” value (α-adrenoceptor) was 7.95, the “PA2 value β1 left atrium” value (β1-adrenoceptor [2]) was 8.16 and the “percentage of relaxation in comparison” value ([3]; 10^−5 M) was −42.1 ± 9.1%. For the same molecule, the “percentage of relaxation in comparison” value ([3]; 10^−6 M) was −35.9 ± 7.9%, the “PA2 value β1 right atrium” value (β1-adrenoceptor [4]) was 8.02 and the “PA2 value β2” value (β2-adrenoceptor) was 7.05.

In the case of `CCCCCCCCC(=O)NCc1ccc(OCC(O)CNCCOc2ccccc2OC)c(OC)c1` (stereo not shown) [Compound 3], the Blood pressure change ([1]; 1 mg/kg intravenous) was −32.6 ± 5.5 mmHg, the Blood pressure change ([1]; 1.5 mg/kg intravenous) was −41.7 ± 4.0 mmHg and the Blood pressure change ([1]; 3 mg/kg intravenous) was −52.0 ± 8.0 mmHg. The “PA2 value α” value (α-adrenoceptor) was 7.12, the “PA2 value β1 left atrium” value (β1-adrenoceptor [2]) was 7.61 and the “percentage of relaxation in comparison” value ([3]; 10^−5 M) was −40.7 ± 8.4%. For the same molecule, the “percentage of relaxation in comparison” value ([3]; 10^−6 M) was −34.5 ± 4.2%, the “PA2 value β1 right atrium” value (β1-adrenoceptor [4]) was 7.80 and the “PA2 value β2” value (β2-adrenoceptor) was 6.81.

`CC=Cc1ccc(OCC(O)CNCCOc2ccccc2OC)c(OC)c1` (stereo not shown) [Compound 4, 1-[(4-propenyl-2-methoxy)-phenoxy]-3-[(2-methoxyphenoxyethyl)amino]-propanol] showed a Blood pressure change ([1]; 1 mg/kg intravenous) of −24.9 ± 3.2 mmHg, a Blood pressure change ([1]; 1.5 mg/kg intravenous) of −29.5 ± 5.1 mmHg and a Blood pressure change ([1]; 3 mg/kg intravenous) of −36.4 ± 7.2 mmHg. For the same molecule, the “PA2 value α” value (α-adrenoceptor) was 7.20, the “PA2 value β1 left atrium” value (β1-adrenoceptor [2]) was 7.89 and the “percentage of relaxation in comparison” value ([3]; 10^−5 M) was −30.1 ± 3.6%. For the same molecule, the “percentage of relaxation in comparison” value ([3]; 10^−6 M) was −23.4 ± 3.7%, the “PA2 value β1 right atrium” value (β1-adrenoceptor [4]) was 7.63 and the “PA2 value β2” value (β2-adrenoceptor) was 6.13.
